According to US8722901B2, “Carboxy oxazole or thiazole compounds as DGAT-1 inhibitors useful for the treatment of obesity” (Piramal Enterprises Limited, priority 2009, dated 2014):

Each compound was assayed against T1, hDGAT-1 (Homo sapiens, UniProt O75907) (assay: In-vitro DGAT-1 assay (14C oleoyl CoA, microsomes from Sf9 cells)). Settings: 1 μM compound; hDGAT-1 containing microsomes from Sf9 cells.
T1 construct: host or cells: Sf9 insect cells (baculovirus); microsomal fraction
T1 sequence (O75907 1-488): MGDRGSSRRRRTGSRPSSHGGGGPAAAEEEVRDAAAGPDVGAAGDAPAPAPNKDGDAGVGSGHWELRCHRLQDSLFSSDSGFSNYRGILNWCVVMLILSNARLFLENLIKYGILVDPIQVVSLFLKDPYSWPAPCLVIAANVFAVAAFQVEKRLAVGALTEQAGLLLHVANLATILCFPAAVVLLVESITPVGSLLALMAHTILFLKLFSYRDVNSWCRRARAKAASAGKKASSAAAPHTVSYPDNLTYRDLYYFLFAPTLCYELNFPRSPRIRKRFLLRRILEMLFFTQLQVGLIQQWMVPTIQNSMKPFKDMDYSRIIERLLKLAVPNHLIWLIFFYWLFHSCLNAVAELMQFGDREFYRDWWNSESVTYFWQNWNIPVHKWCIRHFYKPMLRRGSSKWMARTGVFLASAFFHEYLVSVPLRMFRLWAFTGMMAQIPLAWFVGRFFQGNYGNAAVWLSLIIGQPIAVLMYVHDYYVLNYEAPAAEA
Format: biochemical
Description: In-Vitro Protocol for DGAT-1 Assay
Sf9 Culture and Treatment
Sf9 cells were grown in T25 flasks containing Graces's Insect media (Invitrogen, US) with 10% FBS (Hyclone, US) with antibiotic (100 units/mL penicillin, 100 μg/mL streptomycin sulphate, 0.25 μg/mL amphotericin B as Fungizone) grown in a 27° C. incubator.
hDGAT-10RF expression clone (RZPDo839C09146 in pDEST vector) was obtained from RZPD, Germany. hDGAT-1 bacmid DNA was obtained by transformation of the hDGAT expression clone into DH10Bac E. coli competent cells. Approximately 1 μg of hDGAT-1 bacmid DNA was infected into Sf9 cells with Cellfectin (Invitrogen, US) reagent. Following infection, Sf9 cells were incubated at 27° C. for 30 minutes. Five hours after infection, the media was replaced with growth media containing antibiotic (100 units/mL penicillin, 100 μg/mL streptomycin sulphate, 0.25 μg/mL amphotericin B as Fungizone) and incubated at 27° C. for 72 hours. The supernatant containing the virus was centrifuged at 1500 g for 5 minutes, passed through 0.22 μm filter, and subsequently stored at 4° C. The virus was further amplified three more times by re-infection of Sf9 cells and the viral titer was determined by plaque assay.
Preparation of DGAT-1 Microsomes from Sf9 Cells
Sf9 cells were seeded in spinner flasks on day 0 at a cell density of 1×10^6 and infected on day 1 with hDGAT-1 baculovirus at a multiplicity of infection (MOI) of 5 and a cell density of 2×10^6. On day 3 (or 66-72 hours), cells were harvested and centrifuged at 2500 g for 10 minutes. Pellet was resuspended in lysis buffer (100 mM sucrose, 50 mM KCl, 40 mM KH2PO4, 30 mM EDTA, pH 7.2) and passed through 21-gauge needle approximately 10 times. […] The supernatant was subjected to centrifugation at 35,000 rpm in a Beckman Ti-45 rotor at 4° C. for 1 hour. The resultant pellet containing the microsomes were resuspended overnight in 1 mL of lysis buffer and total protein concentration was estimated using Bradford Reagent (Sigma, US). Microsomes were aliquoted and stored at −80° C.
Measurement of DGAT-1 Activity
Frozen aliquots of hDGAT-1 containing microsomes were thawed (5-10 mg/mL total protein) on ice and diluted to a working stock of 1 mg/mL with DGAT Assay Buffer (DAB).
The assay was performed in duplicates in a reaction volume of 100 μL. […] Procedure:
The reaction was started by the addition of […] of 1 mg/mL of microsomes (iv) to the mixture and incubated at 37° C. for 10 minutes. […] The mixture was vortexed and the triglycerides formed were extracted into the organic heptane phase.

For `CC(C)C(NC(=O)c1nc(-c2ccc(NC(=O)c3ccc(-c4ccccc4)cc3)cc2)cs1)C(=O)O` (centres unmarked) [Example 36, 2-(4-(4-Biphenyl-4-ylcarboxamidophenyl)thiazole-2-carboxamido)-3-methylbutanoic acid], the “% inhibition of hDGAT-1 at 1 μM” value was “+ (>0% Inhibition ≦50)”.
In the case of `CC(C)C(NC(=O)c1ncc(-c2ccc(NC(=O)c3ccc(-c4ccccc4)cc3)cc2)s1)C(=O)O` (centres unmarked) [Example 48, 2-(5-(4-biphenyl-4-ylcarboxamidophenyl)thiazole-2-carboxamido)-3-methylbutanoic acid], the “% inhibition of hDGAT-1 at 1 μM” value is reported as “++ (>50% Inhibition ≦100)”.
In the case of `CC(C)C(C(=O)O)N(C)C(=O)c1ncc(-c2ccc(NC(=O)c3ccc(-c4ccccc4)cc3)cc2)s1` (centres unmarked) [Example 42, 2-(5-(4-Biphenyl-4-ylcarboxamidophenyl)-N-methylthiazole-2-carboxamido)-3-methylbutanoic acid], the “% inhibition of hDGAT-1 at 1 μM” value is reported as “++ (>50% Inhibition ≦100)”.

`CC(C)C(NC(=O)c1nc(-c2ccc(NC(=O)Nc3ccccc3Cl)cc2)cs1)C(=O)O` (centres unmarked) [Example 24, 2-(4-(4-(3-(2-Chlorophenyl)ureido)phenyl)thiazole-2-carboxamido)-3-methylbutanoic acid] and `CC(C)C(NC(=O)c1nc(-c2ccc(NC(=O)Nc3ccc(Cl)cc3Oc3ccccc3)cc2)cs1)C(=O)O` (centres unmarked) [Example 34, 2-(4-(4-(3-(4-chloro-2-phenoxyphenyl)ureido)phenyl)thiazole-2-carboxamido)-3-methylbutanoic acid] fall in the same range of inhibition at 1 µM: 0 to 50% for the first, 0 to 50% for the second.

`CC(C)[C@H](NC(=O)c1ncc(-c2ccc(NC(=O)Nc3ccc(Cl)cc3F)cc2)s1)C(=O)O` [Example 74, (S)-2-(5-(4-(3-(4-chloro-2-fluorophenyl)ureido)phenyl)thiazole-2-carboxamido)-3-methylbutanoic acid] and `CC(C)[C@H](NC(=O)c1ncc(-c2ccc(NC(=O)Nc3cccc(Cl)c3)cc2)s1)C(=O)O` [Example 70, (S)-2-(5-(4-(3-(3-chlorophenyl)ureido)phenyl)thiazole-2-carboxamido)-3-methylbutanoic acid] fall in the same range of inhibition at 1 µM: 50 to 100% for the first, 50 to 100% for the second.

`CCCCCc1ccc(C(=O)Nc2ccc(-c3csc(C(=O)NC(C(=O)O)C(C)C)n3)cc2)cc1` (centres unmarked) [Example 38, 3-Methyl-2-(4-(4-(4-pentylbenzamido)phenyl)thiazole-2-carboxamido) butanoic acid] and `CC(C)C(NC(=O)c1nc(-c2ccc(NC(=O)c3ccc(C(C)(C)C)cc3)cc2)cs1)C(=O)O` (centres unmarked) [Example 28, 2-(4-(4-(4-tert-butylbenzamido)phenyl)thiazole-2-carboxamido)-3-methylbutanoic acid] fall in the same range of inhibition at 1 µM: 0 to 50% for the first, 0 to 50% for the second.

`CC(C)[C@H](NC(=O)c1ncc(-c2ccc(NC(=O)Nc3ccc(Cl)cc3)cc2)o1)C(=O)O` [Example 58, (S)-2-(5-(4-(3-(4-chlorophenyl)ureido)phenyl)oxazole-2-carboxamido)-3-methylbutanoic acid] and `CC(C)[C@H](NC(=O)c1ncc(-c2ccc(NC(=O)Nc3ccc(Cl)cc3F)cc2)o1)C(=O)O` [Example 64, (S)-2-(5-(4-(3-(4-chloro-2-fluorophenyl)ureido)phenyl)oxazole-2-carboxamido)-3-methylbutanoic acid] fall in the same range of inhibition at 1 µM: 50 to 100% for the first, 50 to 100% for the second.

`CC(C)[C@H](NC(=O)c1ncc(-c2ccc(NC(=O)Nc3ccc(C(F)(F)F)cc3Cl)cc2)o1)C(=O)O` [Example 62, (S)-2-(5-(4-(3-(2-chloro-4-(trifluoromethyl)phenyl)ureido)phenyl)oxazole-2-carboxamido)-3-methylbutanoic acid] and `CC(C)C(NC(=O)c1ncc(-c2ccc(NC(=O)Nc3cccc(C(F)(F)F)c3)cc2)o1)C(=O)O` (centres unmarked) [Example 2, 3-Methyl-2-(5-(4-(3-(3-(trifluoromethyl)phenyl)ureido)phenyl)oxazole-2-carboxamido)butanoic acid] fall in the same range of inhibition at 1 µM: 50 to 100% for the first, 50 to 100% for the second.

`CC(C)[C@H](NC(=O)c1ncc(-c2ccc(NC(=O)Nc3ccc(C(F)(F)F)cc3Cl)cc2)s1)C(=O)O` [Example 72, (S)-2-(5-(4-(3-(2-chloro-4-(trifluoromethyl)phenyl)ureido)phenyl)thiazole-2-carboxamido)-3-methylbutanoic acid] and `CC(C)[C@H](NC(=O)c1ncc(-c2ccc(NC(=O)Nc3ccc(Cl)cc3)cc2)s1)C(=O)O` [Example 68, (S)-2-(5-(4-(3-(4-chlorophenyl)ureido)phenyl)thiazole-2-carboxamido)-3-methylbutanoic acid] fall in the same range of inhibition at 1 µM: 50 to 100% for the first, 50 to 100% for the second.

Compared with `CC(C)C(NC(=O)c1ncc(-c2ccc(NCc3ccc(F)cc3)cc2)s1)C(=O)O` (centres unmarked) [Example 91, 2-(5-(4-((4-Fluorobenzyl)amino)phenyl)thiazole-2-carboxamido)-3-methylbutanoic acid], `CC(C)C(NC(=O)c1ncc(-c2ccc(NC(=O)C3Cc4ccccc4C3)cc2)s1)C(=O)O` (centres unmarked) [Example 52, 2-(5-(4-(2,3-dihydro-1H-indene-2-carboxamido)phenyl)thiazole-2-carboxamido)-3-methylbutanoic acid] is higher in inhibition at 1 µM: 0 to 50% for the first, 50 to 100% for the second.

`Cc1ccc(NC(=O)Nc2ccc(-c3cnc(C(=O)NC(C(=O)O)C(C)C)o3)cc2)cc1C` (centres unmarked) [Example 6, 2-(5-(4-(3-(3,4-dimethylphenyl)ureido)phenyl)oxazole-2-carboxamido)-3-methylbutanoic acid] and `CC(C)[C@H](NC(=O)c1ncc(-c2ccc(NC(=O)Nc3ccc4c(c3)CCC4)cc2)o1)C(=O)O` [Example 56, (S)-2-(5-(4-(3-(2,3-dihydro-1H-inden-5-yl)ureido)phenyl)oxazole-2-carboxamido)-3-methylbutanoic acid] fall in the same range of inhibition at 1 µM: 50 to 100% for the first, 50 to 100% for the second.

`CC(C)C(C(=O)O)N(C)C(=O)c1ncc(-c2ccc(NC(=O)c3ccc(C(C)(C)C)cc3)cc2)s1` (centres unmarked) [Example 44, 2-(5-(4-(4-tert-Butylbenzamido)phenyl)-N-methylthiazole-2-carboxamido)-3-methylbutanoic acid] and `CCCCCc1ccc(C(=O)Nc2ccc(-c3cnc(C(=O)N(C)C(C(=O)O)C(C)C)s3)cc2)cc1` (centres unmarked) [Example 40, 3-Methyl-2-(N-methyl-5-(4-(4-pentylbenzamido)phenyl)thiazole-2-carboxamido)butanoic acid] fall in the same range of inhibition at 1 µM: 50 to 100% for the first, 50 to 100% for the second.

First: CC(C)C(NC(=O)c1ncc(-c2ccc(N(Cc3ccccc3)Cc3ccccc3)cc2)s1)C(=O)O (centres unmarked) [Example 93, 2-(5-(4-(dibenzylamino)phenyl)thiazole-2-carboxamido)-3-methylbutanoic acid]
Second: CC(C)C(NC(=O)c1ncc(-c2ccc(NC(=O)Nc3ccc(Cl)cc3Oc3ccccc3)cc2)o1)C(=O)O (centres unmarked) [Example 8, 2-(5-(4-(3-(4-chloro-2-phenoxyphenyl)ureido)phenyl)oxazole-2-carboxamido)-3-methylbutanoic acid]
The inhibition at 1 µM of the first is lower: 0 to 50% for the first, 50 to 100% for the second.

`CC(C)C(NC(=O)c1nc(-c2ccc(NC(=O)Nc3ccc(C(F)(F)F)cc3)cc2)cs1)C(=O)O` (centres unmarked) [Example 30, 3-methyl-2-(4-(4-(3-(4-(trifluoromethyl)phenyl)ureido)phenyl)thiazole-2-carboxamido)butanoic acid] and `Cc1ccc(NC(=O)Nc2ccc(-c3csc(C(=O)NC(C(=O)O)C(C)C)n3)cc2)cc1C` (centres unmarked) [Example 32, 2-(4-(4-(3-(3,4-Dimethylphenyl)ureido)phenyl)thiazole-2-carboxamido)-3-methylbutanoic acid] fall in the same range of inhibition at 1 µM: 0 to 50% for the first, 0 to 50% for the second.

In the case of `CC(C)C(NC(=O)c1nc(-c2ccc(NS(=O)(=O)c3ccc(Cl)cc3Cl)cc2)cs1)C(=O)O` (centres unmarked) [Example 46, 2-(4-(4-(2,4-Dichlorophenylsulfonamido)phenyl)thiazole-2-carboxamido)-3-methylbutanoic acid], the inhibition at 1 µM is reported as 0 to 50%.
